Columns and labels:
caudal epididymal sperm = assay: Epididymal sperm motility and concentration analyses; type: in vivo, mouse
Description: The sperm motility was determined using caudal epididymal sperm. The epididymis was dissected free of connective tissue and a small cut made to the cauda. The tissue was placed in 2 ml F12 culture medium containing 0.1% BSA for 10 minutes at 37° C. Fifty microliters was placed on a warm slide and gently cover-slipped. The specimen was immediately examined using phase contrast microscopy with 200×magnification. The sperm motility assays examined rapid progressive, slow progressive and non-progressive motility according to WHO category.^51 The ratio of motile sperm to the total number of sperm, including immotile sperm, was calculated. Approximately 50-100 sperm were counted per microscopic field. The procedure was repeated at least twice with a new specimen from the same epididymis. Epididymal sperm count was determined using the same epididymis according to a previously described method with some modifications.^25, 52 Briefly, the epididymis that was placed in the 2 ml of culture medium was minced. The tissue pieces were stored at 4° C. for 48 hours to immobilize the sperm. Three independent sperm samples were counted using a hemocytometer. The counts were averaged and used as a replicate in statistical analysis. The control and vinclozolin generation analysis and the control and flutamide generation analysis for an individual experiment were done at the same time. All analyses were done blinded, such that different individuals were used for collection and counting.

[1] = test system: sperm promoter epigenome (DNA methylation); assay: MeDIP-Chip (Nimblegen promoter tiling array, competitive hybridization) of F3 sperm DNA with qPCR validation; type: in vivo, mouse; conditions: F3 generation sperm
Description: Sperm heads were separated from tails and purified following the protocol described^53 (without protease inhibitors) from a total of six F3 vinclozolin generation mice and six F3 control generation mice in the range of 13-15 months of age. Sperm heads were then further purified using a 70% sucrose gradient centrifugation, based on the method described.^54 Purified sperm heads were resuspended in 1 ml buffer 0.5M tris-HCl, pH 8, 0.5M EDTA, 10% SDS and treated with 100 μl proteinase K (20 mg/mL) and 100 μl DDT (0.1 M) at 55° C. for 1 hour. DNA was precipitated with 50% isopropanol, washed with 70% ethanol and resuspended in DEPC H20. Individual sperm DNA was used as samples for further methylated DNA immunoprecipitation.^15 Two pools of samples were produced for each experimental treatment (control and vinclozolin), therefore each pool contained DNA from three animals from different litters. The MeDIP was performed as follows: 6 μg of genomic DNA was subjected to series of three 20 pulse sonications at 20% amplitude and the appropriate fragment size (200-1000 bp) was verified through 2% agarose gels; the sonicated genomic DNA was resuspended in 350 μl TE and denaturated for 10 min at 95° C. and then immediately placed on ice for 5 min; 100 μl of 5×IP buffer (50 mM Na-phosphate pH7, 700 mM NaCl, 0.25% Triton X-100) was added to the sonicated and denatured DNA.
An overnight incubation of the DNA was performed with 5 μg of antibody anti-5-methylcytidine monoclonal from Diagenode S.A at 4° C. on a rotating platform. Protein A/G beads from Santa Cruz were prewashed on PBS-BSA 0.1% and resuspended in 40 μl 1× IP buffer. Beads were then added to the DNA-antibody complex and incubated 2 h at 4° C. on a rotating platform. Beads bound to DNA-antibody complex were washed 3 times with 1 ml 1×IP buffer; washes included incubation for 5 min at 4° C. on a rotating platform and then centrifugation at 6000 rpm for 2 min. Beads-DNA-antibody complex were then resuspended in 250 μl digestion buffer (50 mM Tris HCl pH 8, 10 mM EDTA, 0.5% SDS) and 3.5 μl of proteinase K (20 mg/ml) was added to each sample and then incubated overnight at 55° C. on a rotating platform. DNA purification was performed first with phenol and then with chloroform: isoamyl alcohol. Two washes were then performed with 70% ethanol, 1 M NaCl and glycogen. MeDIP-selected DNA was then resuspended in 30 μl TE buffer. MeDIP sperm DNA was pooled into each of the four above mentioned groups, adding equal amounts of sperm DNA from each individual sample to the pools. Therefore, a total of four pools of MeDIP sperm DNA (C1, C2, V1 and V2) were used for the ChIP arrays.
Nimblegen Mouse Promoter 3×720K format microarray (Mouse Ref Seq promoter array) was used, each subarray contains 709,520 probes. […]

rats = conditions: previous study; mammary tumors, prostate disease, kidney disease, testis and immune abnormalities; cited from earlier work

C=CC1(C)OC(=O)N(c2cc(Cl)cc(Cl)c2)C1=O (racemic) [vinclozolin, (RS)-3-(3,5-dichlorophenyl)-5-methyl-5-vinyl-1,3-oxazolidine-2,4-dione]
mean epididymal sperm concentration (caudal epididymal sperm; primarily F1 generation, not observed in 129 strain F2 or F3): reduction | mean percentage of motile epididymal sperm (caudal epididymal sperm; primarily in the F1 generation males): reduction | number of confirmed sites with decreased DNA methylation ([1]; CD-1): 12 | number of confirmed sites with increased DNA methylation ([1]; CD-1): 28 | number of promoters with differential DNA methylation regions (DMR), MeDIP-Chip ([1]; CD-1, vinclozolin 100 mg/kg/day lineage vs control): 66 | number of DMR confirmed with qPCR ([1]; CD-1, vinclozolin lineage vs control): 40 | frequencies of adult onset disease states (rats): 20-50%

— patent US9734283B2, “Genomic features associated with epigenetic control regions and transgenerational inheritance of epimutations” (priority 2011, dated 2017)
